Experimental data published in patent US20080075750A1, “METHODS FOR PRODUCING THREE-DIMENSIONAL TISSUE-ENGINEERED CARDIAC CONSTRUCTS AND USES REGARDING SAME” (The Nemours Foundation, priority 2001, published 2008).

Experiments:
[1] = test system: Primary NNRCCs (neonatal rat cardiac cells), 2D culture dishes and 3D constructs; experiment: Spontaneous contractile (beat) frequency of cardiac cell cultures before and after exposure to adrenergic/cholinergic agents; type: cell-based; settings: for Propranolol responders: responding cultures of all cultures; for Postproprandolol beat frequency: three minutes after pharmacological dose, responders, 37° C.; for decrease in beat frequency post propranolol: versus baseline of responders
Procedure: Primary NNRCCs in SFHM form spontaneously and rhythmically contracting cultures within the first twenty hours after plating in monolayer cultures. To directly assess contractility and the modulation of contractile activity by […], the effects of propranolol, which is a beta-blocker on the frequency of spontaneous contraction in 2D and 3D preparation were evaluated. 3D cardiac cell cultures were prepared in transparent Teflon® culture bags that were slowly rotated to quiescently suspend the cells and HFN-coated polystyrene beads. Cultures were observed on a 37° C. microscope stage and the spontaneous contractile frequency of the constructs was determined. Samples were then exposed to a pharmacological dose of propranolol without disturbing the field of view on the microscope stage. Three minutes later, the contractile frequency was reassessed.
As expected, both culture types were spontaneously contractile. In standard (2D) preparations entire culture wells beat in unison. In the 3D constructs, entire aggregates of cells in physical contact beat in unison. […]

[2] = test system: bioreactor cultured neonatal rat cardiac cells on microcarriers (BMP 2 function); experiment: Formation of tissue-like aggregates in bioreactor cardiac cultures with Noggin (BMP antagonist) in the media; type: cell-based
Procedure: 2 day old neonatal rat pups were halothane anesthetized and cardioectomitized. The isolated hearts were minced and subjected to about 16 hour digestion by about […] trypsin, followed by about […] collagenase II digestion and cell straining to completely separate individual cells. The cells were then counted on hemocytometer with trypan blue staining aid resuspended in modified serum-free cardiac media (SM3+) at a density of about 1×10^6 total cells/ml. Cells were then mixed with fibronectin-coated Nunclon plastic microcarriers at […] and infused into PTFE bags for bioreactor rotation, with the remainder plated onto fibronectin-coated six-well Nunclon plastic plates at a density of about 2×10^6 cells/well as a control population. Feeding was performed at about 24 hours post-inoculation to remove unattached cells, and about every 3 days thereafter. Samples were collected prior to culture start (Day 0) and at varying intervals thereafter. For the Noggin treatment protocol, about. 0.4 μg/ml Noggin (Pepro Tech, London, UK) in about 10 mM acetic acid was added to media just prior to inoculation and to media used for feeding, with control using untreated media.
Moreover, Noggin was used to assess the role of BMP2 in the formation of tissue-like aggregates in bioreactors. Noggin is a secreted factor which acts as an antagonist for members of the BMP family of proteins (i.e., in solution, Noggin will bind BMP 2 and prevent BMP 2 from binding to its receptor). Thus, adding an effective amount of Noggin to the culture media may suppress BMP 2 function. […] The control bioreactor cardiac cultures formed large tissue-like aggregates surrounding multiple microcarriers complete with substantial thick structure formation visible between the microcarriers.

CC(C)NCC(O)COc1cccc2ccccc12 (centres unmarked) [Propranolol, propranolol]
Propranolol responders ([1]; 2D/culture dishes): (19 of 25)
Postproprandolol beat frequency ([1]; 2D/culture dishes): 130.86 (±10.23)
decrease in beat frequency post propranolol ([1]; 2D/culture dishes): 30% decrease
Propranolol responders ([1]; 3D/HARVs): (6 of 12)
Postproprandolol beat frequency ([1]; 3D/HARVs): 34.59 (±3.842)
decrease in beat frequency post propranolol ([1]; 3D/HARVs): 34% decrease
effect on beat frequency ([1]; both 3D and 2D conformations): decrease in beat frequency in a subset of cultures

CN1[C@@H]2CC[C@H]1C[C@@H](OC(=O)C(CO)c1ccccc1)C2 (some centres unmarked) [atropine]
alteration of baseline contractile frequency ([1]; cholinergic antagonist): did not result in an alteration of baseline contractile frequency

B1: Noggin: secreted factor which acts as an antagonist for members of the BMP family of proteins (Pepro Tech) (protein, UniProt Q13253 28-232, looked up)
Noggin: QHYLHIRPAPSDNLPLVDLIEHPDPIFDPKEKDLNETLLRSLLGGHYDPGFMATSPPEDRPGGGGGAAGGAEDLAELDQLLRQRPSGAMPSEIKGLEFSEGLAQGKKQRLSKKLRRKLQMWLWSQTFCPVLYAWNDLGSRFWPRYVKVGSCFSKRSCSVPEGMVCKPSKSVHLTVLRWRCQRRGGQRCGWIPIQYPIISECKCSC
aggregate size (connected microcarrier supports) ([2]; Noggin treated bioreactor culture, 6 days post inoculation): 2-3 microcarrier supports
contractile activity / myocyte interaction ([2]; Noggin-treated cultures, about 8 hour post-inoculation): no disruption in myocyte interaction or contractile apparatus reformation
tissue-like aggregate formation ([2]; about 0.4 μg/ml Noggin in media, bioreactor culture): only small thin aggregates
